The test system of this experiment is MDA-MB-468 breast. Kind of experiment: NCI anticancer screen, dose series, 48 h.

Molecules are shown by their SMILES. Values joined by “and” are separate entries in the source; they are usually repeats but may differ in a detail not shown here. Equal values may be shown once.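 In this assay, cells in 96-well plates receive the compound at five concentrations for 48 hours. Endpoints are linearly interpolated between the surrounding concentrations. GI50 is the concentration that inhibits growth by half. Definition used: TGI = concentration required for complete inhibition of growth.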

On to `COc1ccc(Cc2nc3cc(OC)c(OC)cc3c(=O)[nH]2)cc1`, for which the GI50 is 3320 nM and the TGI was 17100 nM.

Take `COc1ccc(OCC(O)CN2CCN(c3ccc(Cl)cc3)CC2)cc1` (stereo not drawn): the GI50 is 8930 nM and the TGI was above 100000 nM.

As for `COC(=O)c1ccc2[nH]c(O)c(C(=Nc3ccc(N(C)C(=O)CN4CCN(C)CC4)cc3)c3ccccc3)c2c1`, the GI50 was 1280 nM and the TGI amounted to 2990 nM.

As for `Nc1nc(=S)c2[nH]cnc2[nH]1`, the GI50 was 150 nM and 1040 nM; the TGI is 1230 nM and 8930 nM.

As for `CCSc1ncc(Br)c(Sc2nc(N)nc3nc[nH]c23)n1`, the GI50 is 1720 nM and the TGI was determined as 7810 nM.

As to `CCN1CCN(c2nc(NNC(=O)c3ccccc3)nc(N3CCN(C(c4ccccc4)c4ccccc4)CC3)n2)CC1`, the GI50 was 1940 nM and the TGI was 4690 nM.

Take `CC1(C)CC[C@]2(C(=O)O)CC[C@]3(C)C(=CC[C@@H]4[C@@]5(C)C/C(=C/c6ccco6)C(=O)C(C)(C)[C@@H]5CC[C@]43C)[C@@H]2C1`: the GI50 is 3290 nM and the TGI amounted to 30900 nM.

Take `COc1ccc(/C=C/C(C)=N/OCC(=O)Nc2ccc(Cl)cc2)cc1`: the GI50 was 2520 nM and the TGI was found to be 8340 nM.

Turning to `COc1cc(OC)cc(-c2ccc(-c3ccc(C(=N)N)cn3)s2)c1`, the GI50 was 1720 nM and the TGI was 3320 nM.

With `CC1=C2[C@@H](CC1)[C@]1(C)O[C@@](C3CC3)(C[C@H]1OC(=O)CO)[C@H]2OC(=O)/C=C/c1ccccc1`, the GI50 was 14600 nM and the TGI was found to be 30600 nM.

Regarding `COc1ccc(/C=C\c2cc(OC)c(OC)c(OC)c2)c(NS(=O)(=O)c2ccc(C(C)(C)C)cc2)c1O`, the GI50 is 304 nM and the TGI turned out to be 22700 nM.

Consider `O=C(OC[C@@H]1CO1)c1cccc2c(=O)c3ccccc3[nH]c12`, for which the GI50 was 883 nM and the TGI is 2790 nM.

Consider `CC1=C(CNO)C2=C(C)C3(CC3)[C@@](C)(O)C(=O)C2=C1`, for which the GI50 was 319 nM and the TGI came to 920 nM.

In the case of `NC(=O)c1ncn(C2OC(CO)C(O)C2O)c1N` (stereo not drawn), the GI50 is 75600 nM and the TGI was above 100000 nM.

As to `CCOc1ccc(Nc2nc(-c3c(C)nc4ncccn34)cs2)cc1`, the GI50 is 303 nM and the TGI was found to be 15000 nM.

In the case of `CNCc1ccc(-c2[nH]c3cc(F)cc4c3c2CCNC4=O)cc1`, the GI50 is 10800 nM and the TGI turned out to be 25200 nM.

In the case of `N/C(=N\C(N)=N\c1nc2ccccc2s1)c1cnccn1`, the GI50 was 2470 nM and the TGI turned out to be 6070 nM.

Turning to `Cc1cc(Nc2ccc(Cl)cc2)nc(NCCCNc2ccnc3cc(Cl)ccc23)n1`, the GI50 is 1610 nM and the TGI was found to be 3180 nM.

Take `CN(C)c1ccc(N=C2C=CC(=C(C#N)C#N)c3ccccc32)cc1`: the GI50 was 393 nM and the TGI was found to be 2350 nM.

As to `COc1ccc(-c2cc(-c3ccccc3)nc(NCCNc3ccnc4cc(Cl)ccc34)n2)cc1`, the GI50 is 300 nM and the TGI was determined as 1210 nM.

In the case of `Cn1ccnc1C(=O)/C=C/c1ccc(C(=O)Nc2c(F)c(F)c(F)c(F)c2F)cc1`, the GI50 was 1720 nM and the TGI came to 4330 nM.

As to `O=C(N/N=C/c1ccc(F)cc1)c1ccc(C(F)(F)F)nc1Nc1cccc(C(F)(F)F)c1`, the GI50 is 327 nM and the TGI was 1510 nM.

`COc1cccc(C2C(C#N)=C(N)Oc3cc4c(cc32)OCO4)c1` (stereo not drawn): the GI50 was 24.4 nM and the TGI came out at 665 nM.

In the case of `Cc1ccnc(Nc2ccc([N+](=O)[O-])c(NCCN3CCOCC3)n2)c1`, the GI50 was 18.5 nM and 27.3 nM.

In the case of `CNCc1cccc2c1OCCOCCOCCC(C)S(=O)(=O)c1ccc(cc1)-c1cnc(N)c(n1)C(=O)N2` (stereo not drawn), the GI50 is 1290 nM and the TGI was determined as 3710 nM.

For the compound `C#Cc1cccc(NC(=O)C2CCCN(C(=O)CCl)C2)c1` (stereo not drawn), the GI50 is above 82500 nM and the TGI was above 82500 nM.

As for `CCN(CC)CCNc1ccc([N+](=O)[O-])c2sc3cc(Cl)ccc3c(=O)c12`, the GI50 is 17300 nM and the TGI is 61600 nM.

The values are drawn from PubChem BioAssay (NCI).
